According to patent US8883793B2, “Tubulin inhibitors and methods of using the same” (Development Center for Biotechnology, priority 2010, dated 2014):

Tested on: KB cell
Test: MTS assay, growth inhibition of KB cells
Assay type: cell-based
Details: Homo sapiens, at 10 μM concentration, incubated for 72 h, read-out: Inhibition rate (%) (growth inhibition rate of MTS assay)
Experimental: MTS assay was performed in determining the growth inhibition of cancer cells. MTS ((3-(4,5-dimethylthiazol-2-yl)-5-(3-carboxymethoxyphenyl)-2-(4-sulfophenyl)-2H-tetrazolium)), in the presence of phenazine methosulfate (PMS) and reductases, produces a formazan product that has an absorbance maximum at 490-500 nm. MTS assays (and closely related MTT assay) are commonly used to measure cell viabilities or survivals.
Briefly, KB/Hela, NCI-H460, A375, Colo205, HCT-116, U937, MCF-7, MDA-MB-231, A549, H1975 cells were seeded into 96-well plate at 4000, 4000, 2000, 2000, 2000 cells/well. After 24 h for attachment, test compound was added into each well and incubated for 72 h. A total of 20 μl of MTS reaction reagent containing the MTS (Promega, Madison, Wis.) and PMS in a ratio of 20:1 was added into each well to react with dehydrogenase enzyme in survival cells. After 3 h, the absorbance at 490 nm was monitored using Emax precision microplate reader (Molecular Devices, Sunnyvale, Calif.).
The growth inhibition rate of MTS assay at KB cell of these compounds (at 10 μM concentration) are list in Table 5.

## COc1cccc(CCC(=O)Nc2ncc(Cc3ccc(OC(=O)OCc4ccccc4)c(OC)c3)s2)c1 [Compound 43, Carbonic acid benzyl ester 2-methoxy-4-{2-[3-(3-methoxy-phenyl)-propionylamino]-thiazol-5-ylmethyl}-phenyl ester]
  inhibition at 10 µM: 95.6%

## COc1ccc(Cc2cnc(NC(=O)/C=C/c3ccc(C)o3)s2)cc1 [Compound 44, N-[5-(4-Methoxy-benzyl)-thiazol-2-yl]-3-(5-methyl-furan-2-yl)-acrylamide]
  inhibition at 10 µM: 93.1%

## O=C(CCc1ccc(F)cc1)Nc1ncc(Cc2ccc(C(F)(F)F)cc2)s1 [Compound 45, 3-(4-Fluoro-phenyl)-N-[5-(4-trifluoromethyl-benzyl)-thiazol-2-yl]-propionamide]
  inhibition at 10 µM: 94%

## O=C(CCc1cccnc1)Nc1ncc(Cc2ccc(C(F)(F)F)cc2)s1 [Compound 46, 3-Pyridin-3-yl-N-[5-(4-trifluoromethyl-benzyl)-thiazol-2-yl]-propionamide]
  inhibition at 10 µM: 96%

## COc1cccc(CCC(=O)Nc2ncc(Cc3ccc(C(F)(F)F)cc3)s2)c1 [Compound 48, 3-(3-Methoxy-phenyl)-N-[5-(4-trifluoromethyl-benzyl)-thiazol-2-yl]-propionamide]
  inhibition at 10 µM: 95.3%

## COc1cc(Cc2cnc(NC(=O)CCc3cccnc3)s2)cc(OC)c1OC [Compound 50, 3-Pyridin-3-yl-N-[5-(3,4,5-trimethoxy-benzyl)-thiazol-2-yl]-propionamide]
  inhibition at 10 µM: 97.2%

## COc1ccc(Cc2cnc(NC(=O)CCc3ccc(-c4ccccc4)cc3)s2)cc1 [Compound 51, 3-Biphenyl-4-yl-N-[5-(4-methoxy-benzyl)-thiazol-2-yl]-propionamide]
  inhibition at 10 µM: 96.1%

## COc1ccc(Cc2cnc(NC(=O)C(C)Cc3ccc(F)cc3)s2)cc1 (stereo not shown) [Compound 57, 3-(4-Fluoro-phenyl)-N-[5-(4-methoxy-benzyl)-thiazol-2-yl]-2-methyl-propionamide]
  inhibition at 10 µM: 93.2%

## O=C(CCc1ccc(F)cc1)Nc1ncc(Sc2ccccc2)s1 [Compound 65, 3-(4-Fluoro-phenyl)-N-(5-phenylsulfanyl-thiazol-2-yl)-propionamide]
  inhibition at 10 µM: 96.3%

## O=C(CCc1cccnc1)Nc1ncc(Sc2ccccc2)s1 [Compound 66, N-(5-Phenylsulfanyl-thiazol-2-yl)-3-pyridin-3-yl-propionamide]
  inhibition at 10 µM: 93.3%

## O=C(CCc1ccccc1)Nc1ncc(Sc2ccccc2)s1 [Compound 67, 3-Phenyl-N-(5-phenylsulfanyl-thiazol-2-yl)-propionamide]
  inhibition at 10 µM: 96.6%

## COc1cccc(CCC(=O)Nc2ncc(Sc3ccccc3)s2)c1 [Compound 68, 3-(3-Methoxy-phenyl)-N-(5-phenylsulfanyl-thiazol-2-yl)-propionamide]
  inhibition at 10 µM: 94.4%

## Cc1ccc(CCC(=O)Nc2ncc(Sc3ccccc3)s2)o1 [Compound 72, 3-(5-Methyl-furan-2-yl)-N-(5-phenylsulfanyl-thiazol-2-yl)-propionamide]
  inhibition at 10 µM: 60%

## O=C(CCc1ccc(-c2ccccc2)cc1)Nc1ncc(Sc2ccccc2)s1 [Compound 73, 3-Biphenyl-4-yl-N-(5-phenylsulfanyl-thiazol-2-yl)-propionamide]
  inhibition at 10 µM: 97%

## COc1ccc(Oc2cnc(NC(=O)CCc3ccc(C)o3)s2)cc1 [Compound 74, N-[5-(4-Methoxy-phenoxy)-thiazol-2-yl]-3-(5-methyl-furan-2-yl)-propionamide]
  inhibition at 10 µM: 96.9%

## O=C(CCc1ccccc1)Nc1ncc(SCc2ccccc2)s1 [Compound 75, N-(5-Benzylsulfanyl-thiazol-2-yl)-3-phenyl-propionamide]
  inhibition at 10 µM: 82.5%

## COc1cccc(N2CCN(c3cnc(NC(=O)CCc4ccccc4)s3)CC2)c1 [Compound 76, N-{5-[4-(3-Methoxy-phenyl)-piperazin-1-yl]-thiazol-2-yl}-3-phenyl-propionamide]
  inhibition at 10 µM: 95%

## Cc1ccc(CCC(=O)Nc2ccc(-n3ccc4ccccc43)cn2)o1 [Compound 78, N-(5-Indol-1-yl-pyridin-2-yl)-3-(5-methyl-furan-2-yl)-propionamide]
  inhibition at 10 µM: 93.9%

## Cc1ccc(CCC(=O)Nc2ccc(Sc3ccccc3)cn2)o1 [Compound 80, 3-(5-Methyl-furan-2-yl)-N-(5-phenylsulfanyl-pyridin-2-yl)-propionamide]
  inhibition at 10 µM: 79.4%

## O=C(CCc1cccnc1)Nc1ccc(Sc2ccccc2)cn1 [Compound 82, N-(5-Phenylsulfanyl-pyridin-2-yl)-3-pyridin-3-yl-propionamide]
  inhibition at 10 µM: 95.6%

## O=C(CCc1ccccc1)Nc1ccc(SCc2ccccc2)cn1 [Compound 86, N-(5-Benzylsulfanyl-pyridin-2-yl)-3-phenyl-propionamide]
  inhibition at 10 µM: 92.8%

## COc1ccc(Cc2nnc(NC(=O)CCc3ccc(C)o3)s2)cc1 [Compound 88, N-[5-(4-Methoxy-benzyl)-[1,3,4]thiadiazol-2-yl]-3-(5-methyl-furan-2-yl)-propionamide]
  inhibition at 10 µM: 93.5%

## COc1ccc(Cc2nnc(NC(=O)CCc3ccccc3)s2)cc1 [Compound 89, N-[5-(4-Methoxy-benzyl)-[1,3,4]thiadiazol-2-yl]-3-phenyl-propionamide]
  inhibition at 10 µM: 96.9%

## Cn1c(-c2ccccc2)cnc1NC(=O)CCc1ccccc1 [Compound 90, N-(1-Methyl-5-phenyl-1H-imidazol-2-yl)-3-phenyl-propionamide]
  inhibition at 10 µM: 96.6%

## Cc1ccc(CCC(=O)Nc2ncc(-c3ccccc3)n2C)o1 [Compound 91, 3-(5-Methyl-furan-2-yl)-N-(1-methyl-5-phenyl-1H-imidazol-2-yl)-propionamide]
  inhibition at 10 µM: 96%

## Cc1ccc(CCC(=O)Nc2ncc(/C=C/c3ccccc3)cn2)o1 [Compound 95, 3-(5-Methyl-furan-2-yl)-N-(5-styryl-pyrimidin-2-yl)-propionamide]
  inhibition at 10 µM: 93.6%

## O=C(/C=C/c1ccccc1)Nc1ncc(/C=C/c2ccccc2)cn1 [Compound 96, 3-Phenyl-N-(5-styryl-pyrimidin-2-yl)-acrylamide]
  inhibition at 10 µM: 96.8%

## O=C(CCc1ccccc1)Nc1ncc(/C=C/c2ccccc2)cn1 [Compound 97, 3-Phenyl-N-(5-styryl-pyrimidin-2-yl)-propionamide]
  inhibition at 10 µM: 52.7%

## COc1ccc(-c2cnc(NC(=O)CCc3ccc(C)o3)nc2)c(OC)c1 [Compound 107, N-[5-(2,4-Dimethoxy-phenyl)-pyrimidin-2-yl]-3-(5-methyl-furan-2-yl)-propionamide]
  inhibition at 10 µM: 97%

## O=C(Nc1ncc(-c2ccccc2)cn1)OCc1ccccc1 [Compound 108, (5-Phenyl-pyrimidin-2-yl)-carbamic acid benzyl ester]
  inhibition at 10 µM: 96.9%

## O=C(Nc1ncc(-c2ccc(F)cc2)cn1)OCc1ccccc1 [Compound 109, [5-(4-Fluoro-phenyl)-pyrimidin-2-yl]-carbamic acid benzyl ester]
  inhibition at 10 µM: 95.9%

## O=C(CCc1ccccc1)Nc1ccc(-c2ccccc2)cn1 [Compound 110, 3-Phenyl-N-(5-phenyl-pyridin-2-yl)-propionamide]
  inhibition at 10 µM: 97%

## O=C(CCc1ccccc1)Nc1ccc(-c2ccc(F)cc2)cn1 [Compound 113, N-[5-(4-Fluoro-phenyl)-pyridin-2-yl]-3-phenyl-propionamide]
  inhibition at 10 µM: 97.1%

## Cc1ccc(CCC(=O)Nc2ccc(-c3ccccc3)cn2)s1 [Compound 114, 3-(5-Methyl-thiophen-2-yl)-N-(5-phenyl-pyridin-2-yl)-propionamide]
  inhibition at 10 µM: 93.4%
